# What was measured:
# [1] = molecular target: T1, recombinant CK2 (Homo sapiens, UniProt P68400); experiment: Casein kinase 2 activity kit, 32P incorporation into substrate peptide; type: biochemical
# T1 construct: purchased Upstate Biotechnology 17-132 (number of the activity kit, not of the enzyme)
# Method: FIGS. 5A-5B are bar graphs showing that LY303511 inhibits the cell cycle by causing combined G1 and G2/M arrest and that LY303511 inhibits CK2 activity. For the data shown in FIG. 5A, PASM cells were cultured in medium with FBS for 48 hours before the addition of 0-100 μM LY303511 without or with raparnycin, 400 ng/ml, for 24 hours. Cells were then harvested and incubated with propidium iodide for 2 hours before counting using a Becton-Dickson FACSCalibur. Data are the means (±SEM) of percentages of cells in G1, S, or G2/M phase of the cell cycle in three experiments with duplicate assays. *p<0.05 vs. DMSO control, or †p<0.05 vs. 10 μM LY303511, by Student's t—test. FIG. 5B is a bar graph showing that LY303511 or LY294002 inhibits CK2 in vitro. As per the manufacturer (Upstate Biotechnologies), 0 or 100 ng of recombinant CK2 were incubated with CK2 substrate peptide and ^32P-γ-ATP for 10 min with 1% DMSO or inhibitors as indicated. Data are the means of values for samples with inhibitors expressed as percentage of that for control, which was (mean±SEM) 0.2±0.03 pmol phosphate/100 ng protein/10 min. Data are from three experiments performed in duplicate. *p<0.05 by Student's t-test when compared to DMSO control.
# One specific assay for casein kinase 2 activity is available commercially as a kit from Upstate Biotechnology (New York). The assay is based on phosphorylation of a specific substrate (CK-2 substrate peptide) using the transfer of the gamma-phosphate of ^32P-ATP by casein kinase 2 during a 10 minute incubation at 30° C. The phosphorylated substrate is then separated from the residual ^32P-ATP using P81 phosphocellulose paper, and quantified by scintillation counting.
# Casein kinase 2 (CK2) activity (counts per rninute) was measured using a casein kinase 2 activity kit (Upstate Biotechnology catalogue number 17-132) by incubating recombinant 100 ng CK2, magnesium/ATP cocktail (10 mcCi ^32P-garnma-ATP, 0.675 micromoles MgCl2, 4.5 nmoles ATP), and 10 micromoles peptide substrate (arnino acid sequence RRRDDDSDDD (SEQ ID NO: 1) in 50 mcl assay buffer without or with the indicated concentrations of DMSO (1%), LY294002, LY303511, or rapamycin for 10 minutes at 30° C. Assays were stopped with 20 mcl of 40% trichloroacetic acid, and 25 mcl were spotted on P81 phosphocellulose paper squares before washing 3 times with 0.75% phosphoric acid, and once with acetone. 32P incorporation on the substrate peptide was detected by counting the phosphocellulose squares in 5 ml scintillation fluid using a Packard 100 Tri-Carb liquid scintillation counter.
# Measurement of casein kinase 2 (CK2) activity: CK2 activity (counts per minute) was measured using a CK2 activity kit (Upstate, Charlottesville, Va.) by incubating 100 ng of recombinant CK2, rnagnesium/ATP cocktail (10 μCi ^32P-gamma-ATP, 0.675 μmol MgCl2, 4.5 nmol ATP), and 10 μmol peptide substrate (amino acid sequence RRRDDDSDDD) in 50 μl assay buffer (20 mM MOPS, pH 7.2, 5 mM EGTA, 25 mM β-glycerol phosphate, 1 mM sodium orthovanadate, 1 mM dithiothreitol) without or with the indicated concentrations of LY294002, LY303511, wortmannin or rapamycin in 1% DMSO for 10 min at 30° C. Assays were stopped with 20 μl of 40% trichloroacetic acid, and samples (25 μl) of supernatant were applied to P81 phosphocellulose paper squares, which were then washed three times with 0.75% phosphoric acid, and once with acetone. ^32P in the substrate peptide was quantified using a Packard 100 Tri-Carb liquid scintillation counter on phosphocellulose squares in 5 ml of scintillation fluid. Activity is expressed as pmol phosphate incorporated per 10 minutes. CK2 activity measured in the presence of inhibitors was divided by that measured for the DMSO control (=100% control).
# [2] = test system: A549 cells; experiment: Microarray gene expression analysis in A549 cells; type: cell-based, human; conditions: inhibitor 1 hour before L/I for 6 hours
# Method: Microarray gene expression analyses have been performed in which A549 cells were incubated without or with LY294002 or wortmannin for 1 hour before the addition of L/I for 6 hours. […] The mRNAs of other kinases that were increased by LY294002 included that encoding CK2α′ (1.8-fold; GenBank accession #M55268). Since CK2 can regulate both G1 and G2/M cell cycle transitions, the effects of LY294002 and LY303511 on CK2 activity were assessed.
# T1 sequence (P68400 whole entry): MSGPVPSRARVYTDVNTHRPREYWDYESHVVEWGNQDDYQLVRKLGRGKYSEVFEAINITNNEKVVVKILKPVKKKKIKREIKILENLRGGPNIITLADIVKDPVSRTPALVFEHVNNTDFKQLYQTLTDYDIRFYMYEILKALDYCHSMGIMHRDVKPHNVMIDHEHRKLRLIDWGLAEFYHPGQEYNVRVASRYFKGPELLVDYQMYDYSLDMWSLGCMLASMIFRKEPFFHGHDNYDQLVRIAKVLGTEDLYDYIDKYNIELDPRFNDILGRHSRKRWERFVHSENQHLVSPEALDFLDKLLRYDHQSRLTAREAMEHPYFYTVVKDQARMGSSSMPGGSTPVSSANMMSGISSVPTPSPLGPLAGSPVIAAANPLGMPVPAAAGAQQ
# T1 sequence (P67870 2-215 partner limits assumed): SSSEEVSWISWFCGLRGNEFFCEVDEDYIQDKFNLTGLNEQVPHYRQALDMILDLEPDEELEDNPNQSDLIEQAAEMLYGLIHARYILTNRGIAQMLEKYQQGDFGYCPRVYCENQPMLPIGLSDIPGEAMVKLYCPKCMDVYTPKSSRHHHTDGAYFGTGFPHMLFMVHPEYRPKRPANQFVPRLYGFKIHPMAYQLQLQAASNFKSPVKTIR
compound,measurement,setting,value
"O=c1cc(N2CCOCC2)oc2c(-c3ccccc3)cccc12 [LY294002, 2-(4-morpholinyl)-8-phenyl-4H-1-benzopyran-4-one, reference compound]",CK2 activity,"[1]; 100 ng recombinant CK2, 10 min at 30° C.",concentration-dependent inhibition of CK2 activity
same,CK2 IC50 relative to that for LY303511,[1]; recombinant CK2 in vitro,one tenth
same,IC50,"[1]; recombinant CK2 in vitro, read-out: approximate IC50 for CK2",~10 µM
same,levels of mTOR mRNA,[2],1.7 fold
same,mRNA encoding CK2α′,[2],1.8 fold
